In US20190262469A1 (priority 2015, published 2019):
Values after ≈ are worked out from the molar mass of the structure shown. Where no end group is shown, it is not given here.

B1: EB2-binding peptide identified via phage display, conjugated to the supported lipid bilayer of DOPC protocells (peptide)
peptide: TGAILHP
modifications: also: conjugated to protocell lipid bilayer, linker not described
notes: also called ephrin B2-targeting peptide; targeting peptide

Experiments:
[1] = tested on: E. coli ER2420/pACYC177; test: microbe, parasite or virus in culture; type: cell-based; settings: Escherichia coli, test array/20-well test strips (FIG. 34, 35)
[2] = tested on: E. coli ER2420 with pACYC177 or pACYC184; type: cell-based
[3] = buffer; cited from earlier work
[4] = in vivo; cited from earlier work
[5] = tested on: alphaviruses; settings: cited from earlier work
[6] = target: T1, human ephrin B2 (EB2) expressed on cells (CHO-K1 transfected to express ephrin B2) (human, UniProt P52799 28-333); test: fluorescence of labelled DOPC protocells modified with the ligand on ephrin B2-expressing cells, against unmodified DOPC protocells (FIGS. 3A-B)
T1 construct: whole, on cells; Cellular receptor for Nipah and Hendra viruses; also called CHO-K1/EB2; CHO-K1/ephrin B2
T1 sequence (P52799 28-333): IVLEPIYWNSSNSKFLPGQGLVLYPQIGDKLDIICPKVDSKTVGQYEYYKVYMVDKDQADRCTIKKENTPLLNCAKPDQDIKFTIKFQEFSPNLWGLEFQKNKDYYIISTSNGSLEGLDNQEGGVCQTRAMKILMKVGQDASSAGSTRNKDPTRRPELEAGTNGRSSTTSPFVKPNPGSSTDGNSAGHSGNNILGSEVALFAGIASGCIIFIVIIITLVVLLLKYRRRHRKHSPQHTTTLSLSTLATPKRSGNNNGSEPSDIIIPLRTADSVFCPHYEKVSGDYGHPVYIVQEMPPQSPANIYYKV

Row | Molecule | MIC [1] | killing action detected by delta-Ct for PMA treatment [2] | further results
1 | NC[C@H]1O[C@H](O[C@H]2[C@H](O)[C@@H](O[C@H]3O[C@H](CO)[C@@H](O)[C@H](N)[C@H]3O)[C@H](N)C[C@@H]2N)[C@H](O)[C@@H](O)[C@@H]1O [kanamycin] | > 256 µg/mL |  | 
2 | CC1(C)S[C@@H]2[C@H](NC(=O)[C@H](N)c3ccc(O)cc3)C(=O)N2[C@H]1C(=O)O [amoxicillin] | > 128 µg/mL | in the susceptible strain (pACYC184) and not in the resistant strain (pACYC177) | half-life in aqueous media/solution [3]: on the order of a few hours
3 | CO/N=C(\C(=O)N[C@@H]1C(=O)N2C(C(=O)O)=C(COC(C)=O)CS[C@H]12)c1csc(N)n1 [cefotaxime] |  | in both strains | 
4 | CO[C@H]1/C=C/O[C@@]2(C)Oc3c(C)c(O)c4c(O)c(c(/C=N/N5CCN(C)CC5)c(O)c4c3C2=O)NC(=O)/C(C)=C\C=C\[C@H](C)[C@H](O)[C@@H](C)[C@@H](O)[C@@H](C)[C@H](OC(C)=O)[C@@H]1C [rifampicin] | 8 µg/mL (≈ 9.72 µM) |  | 
5 | NC(=O)c1ncn([C@@H]2O[C@H](CO)[C@@H](O)[C@H]2O)n1 [Ribavirin] |  |  | circulation half-life [4]: < 48 h; IC50 values for several alphaviruses [5]: low micromolar range
6 | O=C(O)[C@H]1/C(=C/CO)O[C@@H]2CC(=O)N21 [clavulanic acid] |  |  | half-life in aqueous media/solution [3]: a few hours
7 | O=C(O)c1cn(C2CC2)c2cc(N3CCNCC3)c(F)cc2c1=O [ciprofloxacin] | < 0.031 µg/mL | rapidly bactericidal to both E. coli at low concentrations | 
8 | B1 |  |  | fold increase in selective binding and internalization [6]: 100 fold
